Data reported in patent EP2450046B1, “A MEDICINAL COMPOSITION FOR THE TREATMENT OF BRONCHITIS AND PREPARATION THEREOF” (Hebei Yiling Medicine Research Institute Co., Ltd., priority 2009, dated 2011).
Where a name gives a salt, the structure may show the parent alone.

Legend:
[1] = test system: panting in the guinea pig induced by histamine plus acetylcholine; assay: Dyspnea-relieving effect on panting in the guinea pig induced by histamine plus acetylcholine; assay type: in vivo, guinea pigs; conditions: Aminophylline 0.05 g/kg i.g. q.d. 3 days, n=10
Text: Sixty white purebred guinea pigs of Grade I evenly composed of males and females with the mean body weight of 198.55 ± 6.30g, provided by Beijing Keyu Animal Breeding Center, License number: SCXK (Jing) 2002-0005.
The healthy guinea pigs evenly composed of males and females were screened preciously. The guinea pigs were individually placed into the 4 L bell-shape glass container and sprayed with a mixed liquid of 2 % acetylcholine chloride and 0.1 % histamine phosphate in equal volumes at a pressure of 400 mmHg for 20s. […] The guinea pig showing the incubation period for asthmatic convulsion above 120s would not be chosen. […] The animals in the test groups were intragastrically administered q.d. at a volume of 5 ml/kg for consecutive three days, while the animals in the control group were administered with equal amount of physiological saline. An asthma-inducing experiment was performed in 30 min post the final administration. The guinea pigs were individually placed into the 4 L bell-shape glass container and sprayed with a mixed liquid of 2 % acetylcholine chloride plus 0.1 % histamine phosphate in equal volumes at a pressure of 400 mmHg for 20s. […] The incubation period lasting for more than 6 min was counted as 360 s. The experimental results were compared among the groups by t-test.

[2] = test system: aqueous ammonia-induced cough in mice; assay: Cough-checking effect on the aqueous ammonia-induced cough in mice; assay type: in vivo, Kunming mice; conditions: CHT 12mg/kg i.g. q.d. 3 days; n=10
Experimental: • (1) The present medication to be tested, 6.25g crude drugs/g (i.e.,1g of the medication was made from 6.25g crude drugs), provided by Shijiazhuang Yiling Pharmaceutical Co. Ltd., lot number: 060501, and diluted to required concentrations with distilled water in the experiment. • (2) Cloperastine Hydrochloride Tablet (CHT) as the positive control of a western medicine, 10mg/tablet, produced by Beijing Shuguang Pharmaceutical Co., Ltd. lot number: 060619, and valid until June, 2008. • (3) Gui Long Ke Chuan Ning Capsule (GLKCNC) as the positive control of a traditional Chinese medicine, 1g crude drugs/pill (0.3g of powder per pill), produced by Shanxi Guilong pharmaceutical Co., Ltd., Approval number: SFDA Approval No. Z-11; Lot number of the product: 060112; valid until December 2007.
Sixty Kunming mice of Grade II evenly composed of males and females with the mean body weight of 19.90 ± 0.66 g, provided by Institute of Laboratory Animal Science, Chinese Academy of Medical Sciences, License number: SCXK (Jing) 2000-0006. […]

[3] = test system: citric acid-induced cough; assay: Cough-checking effect on citric acid-induced cough in guinea pigs; assay type: in vivo; conditions: CHT 7mg/kg i.g. q.d. 3 days; n=10
Experimental: • (1) The present medication to be tested, 6.25g crude drugs/g, provided by Shijiazhuang Yiling Pharmaceutical Co. Ltd., lot number: 060501. • (2) GLKCNC as the traditional Chinese medicine control, 1g crude drugs/pill (0.3g of powder per pill), produced by Shanxi Guilong pharmaceutical Co., Ltd., Approval number: SFDA Approval No. Z-11; Lot number of the product: 060112; valid until December 2007. • (3) CHT as the Western medicine control, 10 mg/tablet, produced by Beijing Shuguang Pharmaceutical Co., Ltd., production date: 200606; lot number: 060619; valid until June, 2008.
Sixty purebred guinea pigs of Grade I evenly composed of males and females with the mean body weight of 206.65 ± 6.92g, provided by Beijing Keyu Animal Breeding Center, License number: SCXK (Jing) 2002-0005.
The guinea pigs were individually placed into the sealed 4L bell-shape container with prior to the experiment and a solution of 17.5% citric acid was sprayed for 1 minute at a pressure of 400 mmHg through the glass sparger. The guinea pigs were screened according to the cough number recorded within 5 minutes Guinea pigs with a cough number of less than 10 were rejected and the qualified ones were chosen for the experiment. […]

sputum volume in mice = assay: Effect on sputum volume in mice measured by phenol red; assay type: in vivo, ICR mice; conditions: Mucosolvan 16mg/kg i.g. q.d. 3 days; n=10
Experimental: • (1) The present medication to be tested, 6.25 g crude drugs/g, provided by Shijiazhuang Yiling Pharmaceutical Co. Ltd., lot number: 060501. • (2) GLKCNC as the traditional Chinese medicine control, 1g crude drugs/pill (0.3g of powder per pill), produced by Shanxi Guilong pharmaceutical Co., Ltd., Approval number: SFDA Approval No. Z-11; Lot number of the product: 060112; valid until December 2007. • (3) Mucosolvan as a western medicine control, 30mg/tablet, the product of Boehringer Ingelheim Int. Ltd. German, lot number: 206362, distribution lot number:030307. […]
Sixty healthy mice were randomly assigned into the following six groups: (1) the blank control group administered with distilled water (25 ml/kg); (2) the Mucosolvan group (16 mg/kg); (3) the GLKCNC group (2 g crude drugs/kg); (4) the low dosage group of the present medication (L-dosage group, 3 g crude drugs/kg); (5) the medium dosage group of the present medication (M-dosage group, 6 g crude drugs/kg); (6)the high dosage group of the present medication (H-dosage group, 12 g crude drugs/kg). […] The optical density (OD) value of the flush liquid was measured by a UV-visible spectrophotometer UV-120-02 at a wavelength of 546nm, in which the level of phenol red in the flush liquid (µg/ml) was calculated on the basis of phenol red standard curve. […]

sputum volume in rats = assay: Effect on sputum volume in rats measured by capillary; assay type: in vivo
Experimental: • (1) The present medication to be tested, 6.25 g of crude drug/g, provided by Shijiazhuang Yiling Pharmaceutical Co. Ltd., lot number: 060501. • (2) GLKCNC as the traditional Chinese medicine control, 1g crude drugs/pill (0.3g of powder per pill), produced by Shanxi Guilong pharmaceutical Co., Ltd., Approval number: SFDA Approval No. Z-11; Lot number of the product: 060112; valid until December 2007. • (3) Mucosolvan as a western medicine control, 30mg/tablet, the product of Boehringer Ingelheim Int. Ltd. German, lot number: 206362, distribution lot number:030307.
Sixty SPF Wistar […] evenly composed of males and females with the mean body weight of 174.38 ± 7.64 g, provided by Institute of Laboratory Animal Science, Chinese Acadamy of Medical Sciences, and License number: SCXK (Jing) 2000-0006.
The sixty healthy rats were randomly assigned into the following six groups: (1) the blank control group administered with distilled water (10 ml/kg); (2) the Mucosolvan group (11 mg /kg); (3) the GLKCNC group (1.5 g crude drug/kg); (4) the low dosage group of the present medication (L-dosage group, 2 g crude drug/kg); (5) the medium dosage group of the present medication (M-dosage group, 4 g crude drug/kg); (6)the high dosage group of the present medication (H-dosage group, 8 g crude drug/kg). […] The skin of neck was incised and the trachea was separated, on which an orifice was pricked with a syringe needle at the median site of the lower edge of the thyroid cartilage between the two cartilages. A piece of glass capillary with the length of 5 cm and the inner diameter of 0.8 mm was inserted through the orifice in a way such that the glass capillary was just contact the inner wall of the trachea. When the glass capillary was filled up with sputum, it would be replaced immediately with another one. The sputum volume in capillaries was determined in 1 hour prior to the administration. One hour later, the animals in the experimental group were administered duodenally with the medications at a volume of 10 ml/kg, while the animals in the control group were administered with equal amount of physiological saline. […] Comparisons among the groups were performed by t-test with the average amount of the secretion in 1 hour prior to administration serving as a normal value.

[4] = Mucosolvan 11mg/kg duodenal, n=10
[5] = Mucosolvan 11mg/kg duodenal, vs 1 h prior to administration

Cn1c(=O)c2[nH]cnc2n(C)c1=O [Aminophylline]
Falling-down time [1]: 358.5 ± 3.4 s | Incubation period ([1]; more than 6 min counted as 360 s): 228.0 ± 43.3 s

Clc1ccc(C(OCCN2CCCCC2)c2ccccc2)cc1 (centres unmarked) [CHT, Cloperastine Hydrochloride]
Cough number [2]: 28.40±9.75 times /3 min | Incubation period [2]: 118.30 ± 27.23 s | Cough number [3]: 6.10±3.57 times/5min | Incubation period [3]: 196.80 ± 66.22 s

Cl.Nc1c(Br)cc(Br)cc1CNC1CCC(O)CC1 (centres unmarked) [Mucosolvan]
Amount of excreted phenol red (sputum volume in mice): 1.538 ± 0.486 µg/mL | Excretion value, 1 h post administration (sputum volume in rats; [4]): 8.76±2.51 cm | Excretion value, 2 h post administration (sputum volume in rats; [4]): 8.50±1.79 cm | Excretion value, Change rate, 1 h post administration (sputum volume in rats; [5]): 238.05±77.76% | Excretion value, Change rate, 2 h post administration (sputum volume in rats; [5]): 67.48±11.94% | Excretion value, Difference, 1 h post administration (sputum volume in rats; [5]): 6.01±1.56 cm | Excretion value, Difference, 2 h post administration (sputum volume in rats; [5]): 5.75±1.64 cm | Excretion value, 1 h prior to administration (sputum volume in rats; Mucosolvan group 11mg/kg, baseline before dosing, n=10): 2.75±1.08 cm
